Assay results taken from publication PMC6731595, “The anti-parasitic agent suramin and several of its analogues are inhibitors of the DNA binding protein Mcm10” (Open Biology, 2019).
Entries after “also recorded” stand apart in the source; their conditions may differ. Structures can show the parent of a compound that is named as a salt. Where two headings read alike, the source gives them in different places.

Assays:
[1] = target: T1, hMcm10-ID (Homo sapiens, UniProt Q7L590); experiment: Surface plasmon resonance binding kinetics on immobilized hMcm10-ID (Biacore S200); details: for surface plasmon resonance hMcm10-ID kd / kon: 25°C; for kon: read-out: surface plasmon resonance hMcm10-ID ka; for SPR binding kinetics (description of sensorgrams): immobilized hMcm10-ID
T1 construct: hMcm10-ID (residues 237 to 436) were expressed in E. coli strain BL21(DE3); 6xHis (HRV 3C site) (N, cleaved yes); made in house; host or cells: E. coli BL21(DE3)
T1 sequence (Q7L590 237-436): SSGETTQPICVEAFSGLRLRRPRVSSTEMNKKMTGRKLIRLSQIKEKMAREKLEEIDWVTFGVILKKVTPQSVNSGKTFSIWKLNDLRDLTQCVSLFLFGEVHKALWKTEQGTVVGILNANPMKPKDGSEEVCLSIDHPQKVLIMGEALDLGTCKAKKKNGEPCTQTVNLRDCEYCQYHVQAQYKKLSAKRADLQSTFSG
Method: SPR experiments were performed using a Biacore S200 (GE Healthcare) equipped with a research-grade CM5 sensor chip. hMcm10-ID, at a concentration of 15 µg ml^−1 in 10 mM sodium acetate, pH 4.5, […], using an amine coupling kit (GE Healthcare) to either flow cell 2 or 4 following manufacturer directions. The reference flow cell (either flow cell 1 or 3) was left untreated. All compounds were dissolved in running buffer (10 mM PBS, 150 mM NaCl, 0.005% P20, pH 7.4) prior to injection over the chip surface at a flow rate of 30 µl min^−1 and at a temperature of 25°C. Zero concentration samples were injected for double referencing. Data were collected at a rate of 40 Hz and were fitted to a simple 1 : 1 interaction model (unless otherwise noted) using the global data analysis within the Biacore S200 evaluation software.

[2] = target: T2, human Mcm10 internal domain (hMcm10-ID) (Homo sapiens, UniProt Q7L590); experiment: Fluorescence polarization competition assay, displacement of 5′-6FAM 10-mer ssDNA probe from hMcm10-ID; format: binding; details: mean ± s.e.m., n ≥ 3; hMcm10-ID 1 μM, probe 12.5 nM
T2 construct: hMcm10-ID (residues 237 to 436) were expressed in E. coli strain BL21(DE3); 6xHis (HRV 3C site) (N, cleaved yes); made in house; host or cells: E. coli BL21(DE3)
T2 sequence (Q7L590 237-436): T1 sequence (Q7L590 237-436)
Method: (§1) A fluorescence polarization (FP) HTS assay was established to detect inhibitors of the binding of the 5′-6FAM 10-mer oligo probe to Mcm10. Test compounds dissolved in DMSO were added to 384-well plates (Corning 4514) using an Echo 550 acoustic dispenser (final DMSO 0.1%) to achieve a final single point screening concentration of 10 µM. Then 10 µl of 2× Xenopus internal domain Mcm10 (xMcm10-ID, final concentration 2 µM) in binding buffer (20 mM Tris HCl, 100 mM NaCl, 5% glycerol, and 0.01% triton, pH 7.5) was added using the Combi nL Multidrop dispenser. Finally, 10 µl of 2× 5′-6FAM DNA (final 12.5 nM) in binding buffer was added using the Multidrop. DMSO (0.1%, high signal) and probe only (low signal) controls were included on every plate. Plates were mixed for 2 min, incubated for 60 min at RT in the dark, and read on a CLARIOstar multimode plate reader (excitation: 482-16, emission: 530-40, dichroic filter: LP504).
(§2) The LOPAC pilot screen identified the sulfhydryl reagent 4-chloromercuribenzoic acid as an inhibitor in the fluorescence polarization (FP) assay. As there was no known Mcm10 inhibitor, 4-chloromercuribenzoic acid (30 μM) was used as a positive control on initial screening plates. Following the discovery of suramin as a Mcm10 inhibitor, suramin (7 μM) was used as a positive control on subsequent screening plates. To confirm activity, screening hits were tested in dose response experiments (8 concentrations in duplicate) using xMcm10-ID. Similar dose response experiments were conducted with suramin and its analogs to confirm activity for hMcm10-ID (1 μM) and xMcm10-FL (2 μM) and to determine selectivity relative to RPA70AB (0.4 μM). Saturation experiments for each protein were conducted using increasing concentrations of protein with a fixed probe concentration (12.5 nM). FP was measured in mP units, and ∆mP values for each well were calculated as the difference between the measured mP and the average of the “probe only” controls. […] The parallel and perpendicular mP values were also used to calculate total fluorescence intensity (TFI) determined by the sum of parallel mP + (2 x perpendicular mP). TFI was used to detect fluorescence interference by compounds [1]. […] IC50 values were calculated using the four parameter logistic equation in Prism 6.0 (GraphPad). Ki values were obtained using an online Ki calculator according to the equations of Nikolovska-Coleska (http://sw16.im.med.umich.edu/soft-ware/calc_ki/). KD values were calculated using the one site or two site binding equations in Prism 6.0 (GraphPad).

[3] = tested on: HCT116 cells; experiment: CellTiter-Glo cell viability assay, HCT116; format: cell-based, human; details: for IC50: Homo sapiens, HCT-116, 96 h, 4 days, intracellular ATP, mean ± s.e.m., n = 3
Method: Cells were cultured at 37°C and 5% CO2. […] Cells were allowed to grow for 4 days in inhibitor containing medium and cell viability was measured with the CellTiter-Glo Luminescent Cell Viability Assay (Promega G7572) following the manufacturer's instructions. Viability of each drug treatment condition was normalized to the untreated control for each cell line and fitted to the sigmoidal dose–response variable slope four parameter equation in GraphPad Prism 6.0.

[4] = target: T3, human RPA70AB (A and B DNA binding domains of RPA70) (Homo sapiens, UniProt P27694); experiment: Fluorescence polarization competition assay, displacement of 5′-6FAM ssDNA probe from RPA70AB; details: for selectivity for hMcm10 over RPA70AB: FP; for Ki: predominant low-affinity (or only) component, mean ± s.e.m., n ≥ 3, read-out: fluorescence polarization hRPA70AB Ki2; for selectivity RPA/ hMcm10: ratio of hRPA70AB Ki2 to hMcm10-ID Ki (FP)
T3 construct: recombinant human RPA70AB (181-422) in a pSV281 vector; 6xHis (TEV site) (N, cleaved yes); made in house; host or cells: Escherichia coli BL21(DE3)
Method: as §1, §2

[5] = target: T1, hMcm10-ID; experiment: ABA injection SPR competition experiment with NF023 on hMcm10-ID; format: binding; details: competitor at 1× KD with NF023 at 10× KD (50 μM)
Method: To explore this possibility, competition-based SPR experiments were conducted using the ABA injection method to determine if the slow binder iso-PPADS competes with the fast kinetic compound NF023 (figure 4). ABA injection allows solution A (NF023 at 10× its KD) to be injected over the surface with solution B (NF023 + competitor at 1× KD) in the same cycle. Competitive binding should result in little or no change in binding response between the A and B injections, whereas non-competitive binders are expected to produce an additive binding response.
For ABA competition SPR experiments, the CM5 chip surface was prepared as described in Materials and Methods. Solution A was prepared with 50 μM NF023 in running buffer while solution B was prepared with the competitor near its KD value (NF023 = 5 μM, suramin = 0.5 μM, and iso-PPADS = 30 μM) ± 50 μM NF023 in running buffer. Data were collected at a rate of 40 Hz and analyzed with the Biacore S200 Evaluation Software. For these experiments, hMcm10-ID was immobilized to the chip surface and NF023 at a concentration 10-fold higher than its KD. A running buffer control was performed to establish the baseline of the experiment. When buffer and NF023 were injected as solution B, there was a small decrease in RU due to slight buffer mismatch effects (Figure 5a). […] NF023, suramin, and iso-PPADS were chosen as competitors to be tested at concentrations equal to their respective KD values as determined by SPR.

[6] = calculated from association and dissociation rate constants, 1:1 model, 6000–8000 RU, read-out: surface plasmon resonance hMcm10-ID kinetic KD

T3 sequence (P27694 181-422): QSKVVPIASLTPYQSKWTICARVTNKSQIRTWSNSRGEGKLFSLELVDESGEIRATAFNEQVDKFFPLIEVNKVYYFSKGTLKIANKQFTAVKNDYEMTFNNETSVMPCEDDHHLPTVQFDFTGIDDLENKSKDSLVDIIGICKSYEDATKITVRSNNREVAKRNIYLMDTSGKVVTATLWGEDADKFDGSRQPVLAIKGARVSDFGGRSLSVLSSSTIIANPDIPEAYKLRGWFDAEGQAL

| surface plasmon resonance hMcm10-ID kd ([1]; 1:1 model, 6000–8000 RU) [s^−1] | kon ([1]; 1:1 model, 6000–8000 RU) [M⁻¹ s⁻¹] | Kd [1, 6] [µM] | SPR binding kinetics (description of sensorgrams) [1] | Ki [2] [µM] | selectivity = hTERT RPE-1 IC50/HCT116 IC50 [3] | IC50 [3] [µM] | selectivity for hMcm10 over RPA70AB [4] | Ki [4] [µM] | selectivity RPA/ hMcm10 [4] | SMILES | higher cytotoxicity for HCT116 cancer cells in comparison to hTERT RPE-1 cells [3] | competition with NF023 for binding to hMcm10-ID (ABA SPR) [5] | Kd ([1]; 3000 RU of hMcm10-ID immobilized, read-out: SPR kinetic KD at lower surface density) [µM] |
| --- | --- | --- | --- | --- | --- | --- | --- | --- | --- | --- | --- | --- | --- |
| 0.0015 ± 0.0001 | 47 ± 8 | 40 ± 9 | slow on- and off-rates | 18 ± 2 | 1.5 | 370 ± 30 | greater than 50 fold | > 1000 | >56 | Cc1nc(/N=N/c2cc(S(=O)(=O)O)ccc2S(=O)(=O)O)c(COP(=O)(O)O)c(C=O)c1O [iso-PPADS, pyridoxalphosphate-6-azophenyl-2’, 5’-disulfonic acid tetrasodium salt] | little cell type specificity | neither compound showed additive binding |  |
| 1.6 ± 0.2 | 360000 ± 2e+09 | 4.7 ± 0.8 | rapid association and dissociation | 1.8 ± 0.2 |  |  |  | 11 ± 1 | 6 | O=C(Nc1cccc(C(=O)Nc2ccc(S(=O)(=O)O)c3cc(S(=O)(=O)O)cc(S(=O)(=O)O)c23)c1)Nc1cccc(C(=O)Nc2ccc(S(=O)(=O)O)c3cc(S(=O)(=O)O)cc(S(=O)(=O)O)c23)c1 [NF023] |  | consistent with a competitive interaction |  |
| 0.0032 ± 0.0001 | 7400 ± 600000 | 0.46 ± 0.05 | predominantly rapid kinetics | 0.17 ± 0.02 | 3.2 | 38 ± 1 | more than 10 fold | 1.9 ± 0.1 | 11 | O=C(Nc1cccc(C(=O)Nc2cc(C(=O)Nc3ccc(S(=O)(=O)O)c4cc(S(=O)(=O)O)cc(S(=O)(=O)O)c34)ccc2F)c1)Nc1cccc(C(=O)Nc2cc(C(=O)Nc3ccc(S(=O)(=O)O)c4cc(S(=O)(=O)O)cc(S(=O)(=O)O)c34)ccc2F)c1 [NF157] | approximately 3.5 fold |  |  |

| SMILES | surface plasmon resonance hMcm10-ID kd ([1]; 1:1 model, 6000–8000 RU) [s^−1] | kon ([1]; 1:1 model, 6000–8000 RU) [M⁻¹ s⁻¹] | Kd [1, 6] [µM] | SPR binding kinetics (description of sensorgrams) [1] | Ki [2] [µM] | selectivity = hTERT RPE-1 IC50/HCT116 IC50 [3] | IC50 [3] [µM] | selectivity for hMcm10 over RPA70AB [4] | Ki [4] [µM] | selectivity RPA/ hMcm10 [4] | higher cytotoxicity for HCT116 cancer cells in comparison to hTERT RPE-1 cells [3] | competition with NF023 for binding to hMcm10-ID (ABA SPR) [5] | Kd ([1]; 3000 RU of hMcm10-ID immobilized, read-out: SPR kinetic KD at lower surface density) [µM] |
| --- | --- | --- | --- | --- | --- | --- | --- | --- | --- | --- | --- | --- | --- |
| Cc1nc(/N=N/c2ccc(S(=O)(=O)O)cc2S(=O)(=O)O)c(COP(=O)(O)O)c(C=O)c1O [PPADS, pyridoxalphosphate-6-azophenyl-2’, 4’-disulfonic acid tetrasodium salt] | 0.0013 ± 0.0001 | 29 ± 8 | 57 ± 9 | slow association and dissociation kinetics; also recorded: slow on and off rates | 17 ± 1 | 1.3 | 310 ± 20 | greater than 50 fold | > 1000 | >59 | little cell type specificity |  |  |
| Cc1ccc(C(=O)Nc2ccc(S(=O)(=O)O)c3cc(S(=O)(=O)O)cc(S(=O)(=O)O)c23)cc1NC(=O)c1cccc(NC(=O)Nc2cccc(C(=O)Nc3cc(C(=O)Nc4ccc(S(=O)(=O)O)c5cc(S(=O)(=O)O)cc(S(=O)(=O)O)c45)ccc3C)c2)c1 [suramin, suramin sodium salt] | 0.16 ± 0.03 | 290000 ± 7e+09 | 0.57 ± 0.06 | predominantly rapid kinetics | 0.83 ± 0.07 | 3.7 | 109 ± 10 |  | 2.5 ± 0.1 | 3 | approximately 3.5 fold | neither compound showed additive binding | 0.65 |
